One test addresses PI3K-γ (Homo sapiens, UniProt P48736). The test is described as follows: PI3K-gamma fluorescence polarization assay. To be noted: read-out: IC50 PI3Kγ. (In fluorescence polarisation assays a small probe gives low polarisation when free and higher when bound to something large.)
For the next test, the target named is Human mTOR (FLAG-TOR) (Homo sapiens, UniProt P42345). Briefly: mTOR kinase assay (DELFIA format, purified enzyme). As to conditions: read-out: IC50 mTOR. The class given is biochemical.
Chain of Human mTOR (FLAG-TOR) (P42345 1360-2549 limits assumed): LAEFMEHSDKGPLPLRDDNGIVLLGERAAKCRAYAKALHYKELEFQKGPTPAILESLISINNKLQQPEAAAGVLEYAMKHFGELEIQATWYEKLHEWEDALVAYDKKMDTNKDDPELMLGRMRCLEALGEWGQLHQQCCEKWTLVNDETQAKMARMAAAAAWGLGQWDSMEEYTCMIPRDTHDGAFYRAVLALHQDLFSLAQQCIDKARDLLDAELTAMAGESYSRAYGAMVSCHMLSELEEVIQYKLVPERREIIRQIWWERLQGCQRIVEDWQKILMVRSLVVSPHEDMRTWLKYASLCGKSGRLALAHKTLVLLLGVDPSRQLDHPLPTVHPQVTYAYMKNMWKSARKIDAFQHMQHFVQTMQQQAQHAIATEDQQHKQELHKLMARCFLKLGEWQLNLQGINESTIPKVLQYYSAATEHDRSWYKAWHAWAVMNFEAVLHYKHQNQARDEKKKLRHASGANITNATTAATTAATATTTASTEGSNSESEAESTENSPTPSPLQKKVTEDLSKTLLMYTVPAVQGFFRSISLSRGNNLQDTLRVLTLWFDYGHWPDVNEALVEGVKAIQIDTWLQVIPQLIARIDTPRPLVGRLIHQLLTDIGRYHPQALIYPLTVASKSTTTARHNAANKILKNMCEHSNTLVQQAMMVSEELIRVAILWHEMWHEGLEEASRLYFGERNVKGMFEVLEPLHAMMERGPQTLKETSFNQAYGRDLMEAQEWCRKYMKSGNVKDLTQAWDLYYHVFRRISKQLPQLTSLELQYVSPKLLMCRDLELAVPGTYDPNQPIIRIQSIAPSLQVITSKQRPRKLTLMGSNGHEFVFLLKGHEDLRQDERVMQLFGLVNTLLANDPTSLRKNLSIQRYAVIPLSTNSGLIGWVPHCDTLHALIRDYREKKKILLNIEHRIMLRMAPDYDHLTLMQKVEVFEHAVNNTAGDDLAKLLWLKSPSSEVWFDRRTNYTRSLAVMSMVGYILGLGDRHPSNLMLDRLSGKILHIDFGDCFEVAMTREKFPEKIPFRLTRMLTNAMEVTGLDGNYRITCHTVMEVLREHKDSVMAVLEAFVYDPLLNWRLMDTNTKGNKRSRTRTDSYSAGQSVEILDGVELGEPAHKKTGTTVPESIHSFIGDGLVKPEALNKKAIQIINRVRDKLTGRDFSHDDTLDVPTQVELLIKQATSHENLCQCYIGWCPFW
Test [1] concerns human prostate PC3-mm2 tumor cell line. Briefly: In vitro cell culture growth assay (MTS), PC3-mm2. As to conditions: Homo sapiens, PC3MM2, 72 h, MTS cell growth assay, three days after drug treatment, read-out: IC50 PC3-mm2. Format: cell-based. A general note: Tetrazolium assays rely on reduction of a dye to a coloured formazan, in cell work by metabolically active cells.
The target of another test is PI3K-α (Homo sapiens, UniProt P42336). The test is described as follows: PI3K-alpha fluorescence polarization assay.
Chain of PI3K-α (P42336 whole entry, species assumed): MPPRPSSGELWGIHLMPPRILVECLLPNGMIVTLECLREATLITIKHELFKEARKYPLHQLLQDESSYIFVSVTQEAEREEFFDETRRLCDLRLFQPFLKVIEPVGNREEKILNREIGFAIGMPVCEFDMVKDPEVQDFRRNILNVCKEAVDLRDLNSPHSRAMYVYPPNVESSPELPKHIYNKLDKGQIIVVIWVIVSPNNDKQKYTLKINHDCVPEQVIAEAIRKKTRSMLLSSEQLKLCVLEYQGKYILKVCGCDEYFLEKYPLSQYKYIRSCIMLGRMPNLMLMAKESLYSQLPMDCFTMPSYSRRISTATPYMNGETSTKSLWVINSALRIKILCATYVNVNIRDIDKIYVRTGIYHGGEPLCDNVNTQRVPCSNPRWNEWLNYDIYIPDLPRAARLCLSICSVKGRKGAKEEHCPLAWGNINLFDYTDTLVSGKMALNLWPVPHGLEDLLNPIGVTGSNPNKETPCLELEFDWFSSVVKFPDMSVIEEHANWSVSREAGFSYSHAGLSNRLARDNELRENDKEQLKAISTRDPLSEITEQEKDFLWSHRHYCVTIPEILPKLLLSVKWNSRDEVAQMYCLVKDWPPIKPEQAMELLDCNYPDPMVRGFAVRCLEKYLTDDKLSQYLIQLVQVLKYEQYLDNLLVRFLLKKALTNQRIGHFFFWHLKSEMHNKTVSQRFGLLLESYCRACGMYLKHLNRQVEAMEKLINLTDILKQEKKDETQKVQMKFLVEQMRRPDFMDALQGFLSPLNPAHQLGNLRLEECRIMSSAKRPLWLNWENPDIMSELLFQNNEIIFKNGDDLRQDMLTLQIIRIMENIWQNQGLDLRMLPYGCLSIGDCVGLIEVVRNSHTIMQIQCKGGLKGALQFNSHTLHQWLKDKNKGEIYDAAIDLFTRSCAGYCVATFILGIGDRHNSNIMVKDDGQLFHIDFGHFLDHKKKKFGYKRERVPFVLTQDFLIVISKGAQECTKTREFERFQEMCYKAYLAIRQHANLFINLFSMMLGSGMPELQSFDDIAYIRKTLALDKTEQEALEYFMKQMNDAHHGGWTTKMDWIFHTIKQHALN
Chain of PI3K-α (P27986 whole entry partner, species assumed): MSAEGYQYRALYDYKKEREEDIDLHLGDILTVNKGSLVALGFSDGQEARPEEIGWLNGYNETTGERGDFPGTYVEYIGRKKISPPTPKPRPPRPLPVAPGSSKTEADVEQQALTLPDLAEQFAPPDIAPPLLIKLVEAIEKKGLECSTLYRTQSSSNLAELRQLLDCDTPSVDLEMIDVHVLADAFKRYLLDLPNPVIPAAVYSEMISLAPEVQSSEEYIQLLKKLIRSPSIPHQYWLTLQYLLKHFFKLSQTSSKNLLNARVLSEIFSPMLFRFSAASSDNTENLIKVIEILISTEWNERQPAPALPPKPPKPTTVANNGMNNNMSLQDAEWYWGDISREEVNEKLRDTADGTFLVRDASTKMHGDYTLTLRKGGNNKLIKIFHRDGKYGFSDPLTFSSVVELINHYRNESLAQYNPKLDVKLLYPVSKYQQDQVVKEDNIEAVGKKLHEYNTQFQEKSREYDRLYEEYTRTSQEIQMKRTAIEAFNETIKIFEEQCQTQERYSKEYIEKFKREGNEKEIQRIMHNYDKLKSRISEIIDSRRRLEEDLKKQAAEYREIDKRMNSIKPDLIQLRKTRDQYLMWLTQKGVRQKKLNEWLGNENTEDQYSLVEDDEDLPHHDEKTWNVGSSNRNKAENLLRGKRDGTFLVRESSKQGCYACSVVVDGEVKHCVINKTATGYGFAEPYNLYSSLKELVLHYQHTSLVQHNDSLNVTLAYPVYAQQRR
In test [2] the test system is human breast MDA-MB-361 tumor cell line. The test is described as follows: In vitro cell culture growth assay (MTS), MDA-MB-361. The class given is cell-based. As to conditions: Homo sapiens, MDA-MB-361, 72 h, MTS cell growth assay, three days after drug treatment, read-out: IC50 MDA-MB-361.

Several values for one entry are separate records, joined by “and”; a condition that tells them apart may be missing. Identical values can stand only once. Like-named read-outs stand apart in the source and are kept apart here. Where only a bound is given, the exact number is not on record here.

Chain of PI3K-γ (P48736 whole entry, species assumed): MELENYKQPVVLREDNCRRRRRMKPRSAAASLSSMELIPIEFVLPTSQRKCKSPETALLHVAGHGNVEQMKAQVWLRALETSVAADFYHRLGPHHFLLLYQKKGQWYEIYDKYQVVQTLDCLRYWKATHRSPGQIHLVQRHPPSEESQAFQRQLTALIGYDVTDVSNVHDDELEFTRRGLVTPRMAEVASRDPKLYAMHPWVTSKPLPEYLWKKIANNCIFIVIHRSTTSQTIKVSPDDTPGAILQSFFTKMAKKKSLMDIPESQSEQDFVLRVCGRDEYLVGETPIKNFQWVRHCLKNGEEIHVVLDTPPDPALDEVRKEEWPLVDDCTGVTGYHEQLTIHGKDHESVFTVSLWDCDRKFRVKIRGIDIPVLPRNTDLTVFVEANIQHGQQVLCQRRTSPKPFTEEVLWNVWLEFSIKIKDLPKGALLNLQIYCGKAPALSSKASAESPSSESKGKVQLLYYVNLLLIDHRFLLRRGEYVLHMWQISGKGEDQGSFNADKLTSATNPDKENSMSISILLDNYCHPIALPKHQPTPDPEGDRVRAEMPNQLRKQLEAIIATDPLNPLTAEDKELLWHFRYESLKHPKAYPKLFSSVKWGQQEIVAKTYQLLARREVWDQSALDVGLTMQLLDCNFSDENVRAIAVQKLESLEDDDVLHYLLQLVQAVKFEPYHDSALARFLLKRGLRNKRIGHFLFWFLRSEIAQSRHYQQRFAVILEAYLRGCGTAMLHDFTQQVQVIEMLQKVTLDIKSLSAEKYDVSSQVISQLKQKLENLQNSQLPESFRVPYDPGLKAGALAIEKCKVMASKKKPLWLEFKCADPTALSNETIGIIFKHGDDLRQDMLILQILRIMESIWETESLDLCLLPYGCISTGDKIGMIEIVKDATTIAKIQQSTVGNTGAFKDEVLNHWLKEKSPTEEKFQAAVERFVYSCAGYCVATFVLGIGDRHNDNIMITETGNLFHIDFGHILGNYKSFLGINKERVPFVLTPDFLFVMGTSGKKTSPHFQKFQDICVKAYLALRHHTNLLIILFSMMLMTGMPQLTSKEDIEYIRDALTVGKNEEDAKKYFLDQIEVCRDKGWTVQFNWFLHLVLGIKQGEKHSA

For orientation: IC50 means the concentration that gives 50% inhibition. Take `CN(C)CCCc1nc(-c2ccc(NC(=O)Nc3ccncc3)cc2)nc(N2CCOCC2)n1` [Example 274, 1-(4-{4-[3-(dimethylamino)propyl]-6-morpholin-4-yl-1,3,5-triazin-2-yl}phenyl)-3-pyridin-4-ylurea]: the IC50 at PI3K-γ was 616 nM; on PI3K-γ (listed as 731) it was 413 nM; at Human mTOR (FLAG-TOR), 59 nM; in test [1] (PC3-mm2 cells), 1490 nM; in test [1], 1490 nM; at PI3K-α (read-out: IC50 PI3Kα) it was 34 nM. The IC50 was determined as 33 nM on PI3K-α (read-out: IC50 PI3Kα, listed as 731) and 1000 nM in test [2].
Turning to `CC(C)NCCCc1nc(-c2ccc(NC(=O)Nc3ccncc3)cc2)nc(N2CCOCC2)n1` [Example 275, 1-[4-(4-{3-[(1-methylethyl)amino]propyl}-6-morpholin-4-yl-1,3,5-triazin-2-yl)phenyl]-3-pyridin-4-ylurea], the IC50 at PI3K-γ was 711 nM; on PI3K-γ (listed as 732), 478 nM; on Human mTOR (FLAG-TOR), 70 nM and 69 nM; in test [1] (PC3-mm2 cells), 4310 nM; in test [1], 4310 nM; at PI3K-α (read-out: IC50 PI3Kα), 46 nM. Besides, the IC50 at PI3K-α (read-out: IC50 PI3Kα, listed as 732) came to 44 nM; in test [2] it was 3100 nM.
Regarding `O=C(Nc1ccncc1)Nc1ccc(-c2nc(CCCN3CCCC3)nc(N3CCOCC3)n2)cc1` [Example 276, 1-{4-[4-morpholin-4-yl-6-(3-pyrrolidin-1-ylpropyl)-1,3,5-triazin-2-yl]phenyl}-3-pyridin-4-ylurea], the IC50 at PI3K-γ was 597 nM; on PI3K-γ (listed as 733) it was 412 nM; on Human mTOR (FLAG-TOR), 60 nM and 75.5 nM; in test [1] (PC3-mm2 cells) it was 1650 nM; in test [1] it was 1650 nM; on PI3K-α (read-out: IC50 PI3Kα), 34 nM. The IC50 on PI3K-α (read-out: IC50 PI3Kα, listed as 733) worked out at 31.5 nM; in test [2], 1350 nM.
Regarding `CN1CCN(CCCc2nc(-c3ccc(NC(=O)Nc4ccncc4)cc3)nc(N3CCOCC3)n2)CC1` [Example 277, 1-(4-{4-[3-(4-methylpiperazin-1-yl)propyl]-6-morpholin-4-yl-1,3,5-triazin-2-yl}phenyl)-3-pyridin-4-ylurea], the IC50 is 276 nM at PI3K-γ; 210 nM on PI3K-γ (listed as 734); 60 nM and 59.5 nM at Human mTOR (FLAG-TOR); 572 nM in test [1] (PC3-mm2 cells); 572 nM in test [1]; 30 nM on PI3K-α (read-out: IC50 PI3Kα). Moreover, the IC50 worked out at 25.5 nM at PI3K-α (read-out: IC50 PI3Kα, listed as 734) and 530 nM in test [2].
Regarding `CN(C)CCNCCCc1nc(-c2ccc(NC(=O)Nc3ccncc3)cc2)nc(N2CCOCC2)n1` [Example 278, 1-{4-[4-(3-{[2-(dimethylamino)ethyl]amino}propyl)-6-morpholin-4-yl-1,3,5-triazin-2-yl]phenyl}-3-pyridin-4-ylurea], the IC50 is 344 nM at PI3K-γ; 290 nM on PI3K-γ (listed as 735); 250 nM and 123 nM at Human mTOR (FLAG-TOR); 3700 nM in test [1] (PC3-mm2 cells); 3700 nM in test [1]; 26 nM on PI3K-α (read-out: IC50 PI3Kα). In addition, the IC50 at PI3K-α (read-out: IC50 PI3Kα, listed as 735) is 26.5 nM; in test [2], 2300 nM.
Turning to `O=C(Nc1ccncc1)Nc1ccc(-c2nc(CCCO)nc(N3CCOCC3)n2)cc1` [Example 279, 1-{4-[4-(3-hydroxypropyl)-6-morpholin-4-yl-1,3,5-triazin-2-yl]phenyl}-3-pyridin-4-ylurea], the IC50 is 70 nM on PI3K-γ; 53.5 nM at PI3K-γ (listed as 736); 35 nM and 3.6 nM on Human mTOR (FLAG-TOR); 247 nM in test [1] (PC3-mm2 cells); 247 nM in test [1]; 10 nM at PI3K-α (read-out: IC50 PI3Kα). Further, the IC50 on PI3K-α (read-out: IC50 PI3Kα, listed as 736) is 9.5 nM; in test [2], 176 nM.
As for `O=CCCc1nc(-c2ccc(NC(=O)Nc3ccncc3)cc2)nc(N2CCOCC2)n1` [Example 280, 1-{4-[4-morpholin-4-yl-6-(3-oxopropyl)-1,3,5-triazin-2-yl]phenyl}-3-pyridin-4-ylurea], the IC50 on PI3K-γ was 29 nM; at PI3K-γ (listed as 737), 30 nM; at Human mTOR (FLAG-TOR), 4 nM and 4.45 nM; in test [1] (PC3-mm2 cells), 404 nM; in test [1] it was 404 nM; on PI3K-α (read-out: IC50 PI3Kα), 5 nM. For the same compound, the 50% inhibitory concentration (IC50) at PI3K-α (read-out: IC50 PI3Kα, listed as 737) was determined as 7 nM; in test [2], 176 nM.
With `O=C(Nc1ccncc1)Nc1ccc(-c2nc(N3CCOCC3)nc(N3CC4COC(C3)O4)n2)cc1` (stereo not drawn) [Example 282, 1-{4-[4-(6,8-dioxa-3-azabicyclo[3.2.1]oct-3-yl)-6-morpholin-4-yl-1,3,5-triazin-2-yl]phenyl}-3-pyridin-4-ylurea], the IC50 at PI3K-γ is 32 nM; on PI3K-γ (listed as 740) it was 34.5 nM; on Human mTOR (FLAG-TOR), 4.7 nM and 4.05 nM; in test [1] (PC3-mm2 cells) it was 84 nM; in test [1], 84 nM; on PI3K-α (read-out: IC50 PI3Kα) it was 10 nM. The IC50 on PI3K-α (read-out: IC50 PI3Kα, listed as 740) was determined as 11.5 nM; in test [2] it was 83 nM.
Consider `CN(C)C1CCN(C(=O)c2ccc(NC(=O)Nc3ccc(-c4nc(C5=CCOCC5)nc(N5CCOCC5)n4)cc3)cc2)CC1` [Example 283, 1-{4-[4-(3,6-dihydro-2H-pyran-4-yl)-6-morpholin-4-yl-1,3,5-triazin-2-yl]phenyl}-3-(4-{[4-(dimethylamino)piperidin-1-yl]carbonyl}phenyl)urea], for which the IC50 at PI3K-γ was found to be 11 nM; at PI3K-γ (listed as 505), 5 nM; at Human mTOR (FLAG-TOR) it was 3.1 nM; in test [1] (PC3-mm2 cells) it was 33.3 nM; in test [1], 33.3 nM; at PI3K-α (read-out: IC50 PI3Kα), 1 nM. Also, the IC50 at PI3K-α (read-out: IC50 PI3Kα, listed as 505) came out at 0.6 nM; in test [2] (MDA-MB-361 cells) it was 12.3 nM; in test [2] it was 12.3 nM.
As to `CN(C)CCNC(=O)c1ccc(NC(=O)Nc2ccc(-c3nc(C4=CCOCC4)nc(N4CCOCC4)n3)cc2)cc1` [Example 284, 4-[({4-[4-(3,6-dihydro-2H-pyran-4-yl)-6-morpholin-4-yl-1,3,5-triazin-2-yl]phenyl}carbamoyl)amino]-N-[2-(dimethylamino)ethyl]benzamide], the IC50 is 12 nM at PI3K-γ; 12.5 nM at PI3K-γ (listed as 508); 0.9 nM and 0.97 nM on Human mTOR (FLAG-TOR); 36.3 nM in test [1] (PC3-mm2 cells); 36.3 nM in test [1]; less than 1.9 nM against PI3K-α. Further, the IC50 is 0.7 nM at PI3K-α (read-out: IC50 PI3Kα) and 12 nM in test [2].
On to `CCCc1nc(-c2ccc(NC(=O)Nc3ccc(N4CCN(C)CC4)cc3)cc2)nc(N2CCOCC2)n1` [Example 294, 1-[4-(4-methylpiperazin-1-yl)phenyl]-3-[4-(4-morpholin-4-yl-6-propyl-1,3,5-triazin-2-yl)phenyl]urea], for which the IC50 was determined as 26 nM on PI3K-γ; 18 nM at Human mTOR (FLAG-TOR); 154 nM in test [1]; 9 nM on PI3K-α (read-out: IC50 PI3Kα); 69 nM in test [2].
`CCc1nc(-c2ccc(NC(=O)Nc3ccc(OCCN(C)C)cc3)cc2)nc(N2CCOCC2)n1` [Example 295, 1-{4-[2-(dimethylamino)ethoxy]phenyl}-3-[4-(4-ethyl-6-morpholin-4-yl-1,3,5-triazin-2-yl)phenyl]urea]: the IC50 at PI3K-γ came to 81 nM; on Human mTOR (FLAG-TOR), 29 nM; in test [1] it was 189 nM; on PI3K-α (read-out: IC50 PI3Kα) it was 19 nM; in test [2], 133 nM.
Taken in the same sequence, the figures for `CCc1nc(-c2ccc(NC(=O)Nc3ccc(N4CCN(C)CC4)cc3)cc2)nc(N2CCOCC2)n1` [Example 296, 1-[4-(4-ethyl-6-morpholin-4-yl-1,3,5-triazin-2-yl)phenyl]-3-[4-(4-methylpiperazin-1-yl)phenyl]urea] were 35 nM, 21 nM, 133 nM, 13 nM and 83 nM.
Taken in the same sequence, the figures for `CC(C)Cc1nc(-c2ccc(NC(=O)Nc3ccc(N4CCN(C)CC4)cc3)cc2)nc(N2CCOCC2)n1` [Example 297, 1-[4-(4-methylpiperazin-1-yl)phenyl]-3-{4-[4-(2-methylpropyl)-6-morpholin-4-yl-1,3,5-triazin-2-yl]phenyl}urea] were 70 nM, 10 nM, 290 nM, 38 nM and 115 nM.
For `CCc1nc(-c2ccc(NC(=O)Nc3ccc(C(=O)N4CCNC(C)(C)C4)cc3)cc2)nc(N2CCOCC2)n1` [Example 298, 1-{4-[(3,3-dimethylpiperazin-1-yl)carbonyl]phenyl}-3-[4-(4-ethyl-6-morpholin-4-yl-1,3,5-triazin-2-yl)phenyl]urea], the IC50 on PI3K-γ turned out to be 24 nM; at Human mTOR (FLAG-TOR), 21 nM; in test [1], 165 nM; on PI3K-α (read-out: IC50 PI3Kα) it was 2 nM; in test [2] it was 38 nM.
For `CCc1nc(-c2ccc(NC(=O)Nc3ccc(C(=O)NC4CN(C)C4)cc3)cc2)nc(N2CCOCC2)n1` [Example 299, 4-({[4-(4-ethyl-6-morpholin-4-yl-1,3,5-triazin-2-yl)phenyl]carbamoyl}amino)-N-(1-methylazetidin-3-yl)benzamide], the IC50 turned out to be 34 nM on PI3K-γ; 80 nM on Human mTOR (FLAG-TOR); 219 nM in test [1]; 3 nM on PI3K-α (read-out: IC50 PI3Kα); 73 nM in test [2].

For the origin of these results see US20090304692A1, “TRIAZINE COMPOUNDS AS PI3 KINASE AND MTOR INHIBITORS” (Wyeth, priority 2008, published 2009).
